Where two headings read alike, the source gives them in different places. *1 amine or outer side, *2 acyl side, *3 side chain or, on linkers, in order; H or OH if unused. Where a SMILES comes first, the peptide text is derived from it. [ ]: non-standard residue; d: D form. γGlu = O=C(O)[C@H](CCC(=O)[*:2])N[*:1]
[1] = kidney, 1 hour after 10 mmol/kg i.p., fasted BSO treated mice
[2] = kidney, 2.5 hours after 10 mmol/kg i.p., fasted BSO treated mice
[3] = liver, 1 hour after 10 mmol/kg i.p., fasted BSO treated mice
[4] = liver, 2.5 hours after 10 mmol/kg i.p., fasted BSO treated mice
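Also: mice fasted 18 h, given 10 mM BSO in drinking water plus BSO 2 mmol/kg 13 h and 3 h before dosing, controls got 0.9% NaCl, mean ± SD.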

Description: The N-acetyl GSH monoethyl ester was used. A solution of N-acetyl GSH monoester was prepared in aseptic water. Mice weighing 18 to 25 grams, obtained from Taconic Farms, Inc., (TAC:(SWFBR)), were fasted for 18 hours before injection with NAGEE. At the time of fasting, the drinking water contains 10 mM L-buthionine-SR-sulfoximine (BSO). All mice are injected with L-buthionine-SR-sulfoximine (BSO) (2 millimoles per kilogram; intraperitoneally) 13 hours before NAGEE injection. The mice are injected again with L-buthionine-SR-sulfoxminie (BSO) (2 millimoles per kg; subcutaneously) 3 hours prior to NAGEE injection. NAGEE or GSH are administered intraperitoneally (10 mmol/kg; the pH of the solution is adjusted to about 7 with sodium hydroxide). The GSH solution also contains ethanol at 10 mmol/kg. Control mice are given equivalent volumes of 0.9% sodium chloride. The mice were then injected intraperitoneally with the N-acetyl GSH monoethyl ester in a dose of 10 millimoles per kilogram. […] Using groups of 4 or 5 mice each, values are given as means plus or minus S.D.

**Q.** Which “levels of GSH monoethyl ester, NAGEE and NAG found (in words)” value (kidney, 10 mmol/kg i.p.) does the source give for `CCOC(=O)CNC(=O)[C@H](CS)NC(=O)CC[C@H](NC(C)=O)C(=O)O` [NAGEE, N-acetyl glutathione monoethyl ester] (Ac-[γGlu]-Cys-Gly-OEt) here?
**A.** substantial levels

**Q.** What about the “GEE level, kidney” value [1] of the same compound?
**A.** 0.92 µmol/g

**Q.** What about the “GSH equivalents total, kidney” value [1] of the same compound?
**A.** 10.51 µmol/g

**Q.** And the “GSH level, kidney” value [1]?
**A.** 1.6 µmol/g

**Q.** And the “NAG level, kidney” value [1]?
**A.** 1.43 µmol/g

**Q.** What about the “NAGEE level, kidney” value [1] of the same compound?
**A.** 5.54 µmol/g

**Q.** And the “GEE level, kidney” value [2]?
**A.** 0.52 µmol/g

**Q.** What about the “GSH equivalents total, kidney” value [2] of the same compound?
**A.** 5.67 µmol/g

**Q.** And the “GSH level, kidney” value [2]?
**A.** 2.3 µmol/g

**Q.** What about the “NAG level, kidney” value [2] of the same compound?
**A.** 0.79 µmol/g

**Q.** What about the “NAGEE level, kidney” value [2] of the same compound?
**A.** 2.10 µmol/g

**Q.** What about the “GSH level of the kidney (in words, FIGS. 1 and 2)” value (kidney, 2.5 hours after administration, 10 mmol/kg i.p.) of the same compound?
**A.** increased substantially

**Q.** And the “GSH level of the kidney (in words)” value (kidney, at 5 hours, 10 mmol/kg i.p.)?
**A.** declined

**Q.** And the “GSH mono-ethyl ester found in the liver (in words)” value (liver, 10 mmol/kg i.p.)?
**A.** a little

**Q.** And the “GEE level, liver” value [3]?
**A.** 0.18 µmol/g

**Q.** What about the “GSH equivalents total, liver” value [3] of the same compound?
**A.** 14.28 µmol/g

**Q.** And the “GSH level, liver” value [3]?
**A.** 0.45 µmol/g

**Q.** And the “NAG level, liver” value [3]?
**A.** 4.80 µmol/g

**Q.** What about the “NAGEE level, liver” value [3] of the same compound?
**A.** 8.85 µmol/g

**Q.** What about the “GEE level, liver” value [4] of the same compound?
**A.** 0.15 µmol/g

**Q.** And the “GSH equivalent total, liver” value [4]?
**A.** 7.17 µmol/g

**Q.** And the “GSH level, liver” value [4]?
**A.** 0.71 µmol/g

**Q.** What about the “NAG level, liver” value [4] of the same compound?
**A.** 3.38 µmol/g

**Q.** What about the “NAGEE level, liver” value [4] of the same compound?
**A.** 2.93 µmol/g

**Q.** What about the “liver levels of N-acetyl GSH (in words)” value (liver, at 1 and 2.5 hours, 10 mmol/kg i.p.) of the same compound?
**A.** increased dramatically

**Q.** And the “liver levels of GSH (in words)” value (liver, at 2.5 hours, 10 mmol/kg i.p.)?
**A.** increased moderately

**Q.** With `N[C@@H](CCC(=O)N[C@@H](CS)C(=O)NCC(=O)O)C(=O)O` [GSH, L-γ-glutamyl-L-cysteinylglycine, reference compound] as the compound, how does the “effect on glutathione levels in the kidney as compared to the controls (in words)” value (kidney, 10 mmol/kg i.p., fasted BSO treated mice) read?
**A.** only a slight effect

**Q.** What about the “GSH level, kidney” value [1] of the same compound?
**A.** 1.9 µmol/g

**Q.** What about the “GSH level, kidney” value [2] of the same compound?
**A.** 1.01 µmol/g

**Q.** What about the “GSH level, liver” value [3] of the same compound?
**A.** 1.38 µmol/g

**Q.** What about the “GSH level, liver” value [4] of the same compound?
**A.** 0.45 µmol/g
